From patent EP4512806A1, “MOLECULAR GLUE DEGRADERS AND USES THEREOF” (Mablink Bioscience, priority 2023, dated 2025)

Tests used:
Cyclin K = assay: CycK mRNA RT-qPCR in JIMT-1 cells; assay type: cell-based, human; settings: 1µM final concentration, 2h
Method: 1×10^6 JIMT-1 cells were plated in 3mL of DMEM/FBS 90:10 (v/v) in 6-well plates and incubated overnight. Cells were treated with the compound 2384 of the invention, with CR8 (a known molecular glue degrader that depletes CycK) or with the proteasome inhibitor MG-132 (MedChemExpress, Cat HY-13259) for 2h. RNA was extracted using the QIAamp RNeasy Mini Kit (cat#74106, Qiagen) according to the manufacturer's protocol. Reverse transcription was performed using SuperScripr™ IV reverse transcriptase (cat#LT02241, Invitrogen). Quantitative PCR was performed using a No ROX Sybr Master Mix in the LightCycler 480 Real-Time PCR system (Roche Life Science).
Cyclin K forward ([…]) and reverse ([…]) primers were purchased from Eurogentec. Gene expression was normalized using ribosomal 28S as the housekeeping gene.

JIMT-1 cells = assay: Cell cycle arrest assessment (propidium iodide, flow cytometry); assay type: cell-based, human; settings: 24h, 2, 5, 10, and 50nM
Method: 1×10^6 JIMT-1 cells were plated in 3mL of DMEM/FBS 90:10 (v/v) in 6-well plates and incubated overnight. Cells were treated with the compound 2384 of the invention or with CR8 for 24h. Cells were then harvested and washed three times with PBS. Cells were suspended into 300µL of propidium iodide working solution (0.05mg/mL) and incubated for 45 minutes at 4°C in the dark. Analysis was performed using a BD Fortessa flow cytometer controlled by BD FACSDiva software (BD Biosciences) and data were analyzed using FlowJo software (BD Bioscience).

SMILES: N[C@H]1CC[C@H](Nc2nc(NCc3ccc(-c4ccccn4)cc3)n3ncc(Br)c3n2)CC1 [Compound 2384]
- CycK mRNA level (Cyclin K): not at the CycK mRNA level
- cell cycle analysis (propidium iodide) (JIMT-1 cells): arrest in the G2/M phase
